This note sets out measurements from paper PMC5408257, “Bioactive Metabolites from the Deep Subseafloor Fungus Oidiodendron griseum UBOCC-A-114129” (Marine Drugs, 2017).

The structures appear in SMILES notation.

Usually IC50 stands for the point on the concentration scale where inhibition reaches its midpoint. A lower IC50 goes with inhibition by little substance.

The target in this assay is T1, CDC2-like kinase-1 (CLK1) (Mus musculus, UniProt P22518).
T1 construct: Recombinant GST-CLK1
Kind of assay: radiometric kinase assay with […] [gamma-33P] ATP, dose-response (n = […]). Format: biochemical.

T1 sequence (P22518 whole entry): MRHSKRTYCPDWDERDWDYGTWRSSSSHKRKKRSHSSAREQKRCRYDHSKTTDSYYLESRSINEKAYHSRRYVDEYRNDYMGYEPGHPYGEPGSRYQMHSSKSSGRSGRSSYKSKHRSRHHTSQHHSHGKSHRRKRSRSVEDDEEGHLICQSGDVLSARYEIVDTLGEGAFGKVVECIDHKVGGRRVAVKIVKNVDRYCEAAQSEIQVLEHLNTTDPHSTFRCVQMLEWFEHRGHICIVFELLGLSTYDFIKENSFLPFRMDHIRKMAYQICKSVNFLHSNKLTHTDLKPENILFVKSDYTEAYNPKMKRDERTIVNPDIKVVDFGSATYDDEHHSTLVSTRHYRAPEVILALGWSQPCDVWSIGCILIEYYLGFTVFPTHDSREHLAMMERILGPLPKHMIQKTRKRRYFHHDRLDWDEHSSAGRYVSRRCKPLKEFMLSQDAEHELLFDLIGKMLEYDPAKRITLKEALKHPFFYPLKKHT

Regarding `CC(C)=CCc1c(O)c(O)c(O)c2c1CC(=O)OC2C` (stereo not shown) [compound 3, dihydrosecofuscin], it took 56.1 µM to reach half-maximal inhibition (IC50). This lies in the double-digit micromolar range.
